In US5223637A, “KS-506 compounds” (Kyowa Hakko Kogyo Co., Ltd., priority 1988, dated 1993):
≈ marks a conversion by molar mass, not a printed value. Structures can show the parent of a compound that is named as a salt.

How the values were obtained:
Solubility = assay type: physicochemical; conditions: for Solubility (solvents in which insoluble): hexane and water; for Solubility (solvents in which soluble): organic solvents as listed
[1] = test system: PDE preparation partially purified from bovine cerebral cortex; assay: PDE-inhibiting activity (Experimental Example 1); assay type: biochemical; conditions: 1.2 mM cAMP, 4 U/ml calmodulin, 50 μM calcium chloride, pH 6.9, 30° C., 30 minutes
Description: Methanol solutions of the test compounds at various concentrations (50 μl each) were respectively added to 500 μl of a reaction mixture comprising 80 mM imidazole-hydrochloride buffer (pH 6.9), 3 mM magnesium sulfate, 0.3 mM dithiothreitol, 100 mM sodium chloride, 50 μM calcium chloride, 1.2 mM cAMP, 4 U/ml calmodulin (1U is defined as the amount which activates 50% of the maximum activity of PDE under the conditions) and 26 mU/ml PDE (1U is defined as the amount which hydrolyzes 1 μmol of cAMP in one minute), and reaction was allowed to proceed at 30° C. for 30 minutes.
The reaction was discontinued by heating at 100° C. for 5 minutes. Then, 6 μmol of manganese chloride and 0.2 U of 5'-nucleotidase (1U is defined as the amount which forms 1 μmol of phosphoric acid in one minute) were added to the reaction mixture, and reaction was allowed to proceed at 30° C. for 30 minutes. […] Inhibition rate was calculated in accordance with the following equation:
Inhibition rate=(A-B)/A×100 (%)
A: Amount of the inorganic phosphoric acid formed in the absence of a test compound
B: Amount of the inorganic phosphoric acid formed in the presence of a test compound

[2] = test system: Rat Peritoneal Exudate Cells; assay: Effect on Histamine Release from Rat Peritoneal Exudate Cells (Experimental Example 2); assay type: cell-based; conditions: phosphatidyl-L-serine and concanavalin A stimulation; for IC50: 37° C., read-out: IC50 (concentration of a test compound which inhibits histamine release by 50%)
Description: Effect on Histamine Release from Rat Peritoneal Exudate Cells
1) Preparation of Suspension of Rat Abdominal Cavity Cells and Effect on Histamine Release
Rats weighing from 350 to 450 g were sacrificed by exsanguination under dry ether anesthesia, and a medium for mast cells (composition : 150 mM NaCl, 3.7 mM KCl, 3 mM Na2 HPO4, 3.5 mM KH2 PO4, 1 mM CaCl2, 5.6 mM glucose, 0.1% bovine serum albumin and 10 U/ml heparin) prepared according to the method of Sullivan, et al. [J. Immunol. 114, 1473 (1973)] was intraperitoneally injected into the animals in an amount of 15 ml/animal. After massage of the abdominal parts for 2 minutes, the animals were subjected to celiotomy to sample exudate in the abdominal cavities. The collected exudate was subjected to centrifugation at 100 xg at 4° C. for 5 minutes, and the precipitate was mixed with an appropriate amount of the ice-cooled medium for mast cells mentioned above to prepare a suspension. Then, the centrifugation and the addition of the medium were repeated three times to prepare a cell suspension wherein the final concentration of the mast cells was about 2×10^5 cells/ml. Identification of the mast cells was carried out by staining intracellular granules with 0.05% Toluidine Blue.
One milliliter portions of the thus obtained cell suspension were preincubated at 37° C. for 5 minutes, and then respectively mixed with 0.1 ml each of test compound solutions having various concentrations,followed by incubation for 5 minutes. The incubated mixtures were further mixed with 0.1 ml each of 10 μg/ml phosphatidyl-L-serine and concanavalin A, and then incubated for 15 minutes.
Spontaneous histamine release was determined under similar incubation conditions except that physiological saline was used in place of phosphatidyl-L-serine and concanavalin A.
The reaction was stopped by addition of 3 ml of ice-cooled physiological saline, and the cell suspension was subjected to centrifugation at 1100 xg at 4° C. for 10 minutes to obtain a supernatant and a residue. Histamine contents of the supernatant and the residue were measured by the fluorescence method according to the method of Komatsu [Allergy 27, 67 (1978)]. Histamine release rate was indicated as the percentage of the histamine content of the supernatant to the total histamine content of the cells. The rate of inhibition of histamine release by the test compound solution was calculated according to the following equation: [formula]

## Cc1c(C)c(C(=O)Oc2c(C)c(O)c(C)c(C)c2C(=O)SSC(=O)c2c(C)c(C)c(O)c(C)c2OC(=O)c2c(C)c(C)c(O)c(C)c2O)c(O)c(C)c1O [KS-506a]
Solubility
  Solubility (solvents in which insoluble): insoluble in hexane and water
  Solubility (solvents in which soluble): soluble in methanol, ethanol, acetone, ethyl acetate, acetonitrile, dimethylsulfoxide and chloroform
[1]
  IC50 (concentration of a test compound inhibiting 50% of the PDE activity): 1.22 µg/mL

## CC(=O)CCSC(=O)c1c(C)c(C)c(O)c(C)c1OC(=O)c1c(C)c(C)c(O)c(C)c1O [KS-506m]
[2]; concentration of test compound 0.5 μg/ml, read-out: Release inhibition rate
  inhibition at 0.5 µg/mL: 27.9%
[2]; concentration of test compound 1.5 μg/ml, read-out: Release inhibition rate
  inhibition at 1.5 µg/mL: 58.4%
[2]; concentration of test compound 5.0 μg/ml, read-out: Release inhibition rate
  inhibition at 5 µg/mL: 83.3%
[2]
  IC50: 1.2 µg/mL (≈ 2.61 µM)
Solubility
  Solubility (solvents in which insoluble): insoluble in hexane and water
  Solubility (solvents in which soluble): soluble in methanol, acetone, ethyl acetate, acetonitrile and dimethylsulfoxide

## Cc1c(C)c(C(=O)Oc2c(C)c(O)c(C)c(C)c2SSC(=O)c2c(C)c(C)c(O)c(C)c2OC(=O)c2c(C)c(C)c(O)c(C)c2O)c(O)c(C)c1O [KS-506x]
Solubility
  Solubility (solvents in which insoluble): insoluble in hexane and water
  Solubility (solvents in which soluble): soluble in methanol, ethanol, acetone, ethyl acetate, acetonitrile, dimethylsulfoxide and chloroform
[1]
  IC50 (concentration of a test compound inhibiting 50% of the PDE activity): 0.28 µg/mL

## Cc1c(C)c(C(=O)Oc2c(C)c(O)c(C)c(C)c2SSc2c(C)c(C)c(O)c(C)c2OC(=O)c2c(C)c(C)c(O)c(C)c2O)c(O)c(C)c1O [KS-506g]
Solubility
  Solubility (solvents in which insoluble): insoluble in hexane and water
  Solubility (solvents in which soluble): soluble in methanol, ethanol, acetone, ethyl acetate, acetonitrile, dimethylsulfoxide and chloroform
[1]
  IC50 (concentration of a test compound inhibiting 50% of the PDE activity): 0.080 µg/mL

## COc1c(O)cc2cc(C)oc(=O)c2c1O [Reticurol, reference compound]
[1]
  IC50 (concentration of a test compound inhibiting 50% of the PDE activity): 20 µg/mL

## COC(=O)c1c(C)c(C)c(O)c(C)c1OC(=O)c1c(C)c(C)c(O)c(C)c1O [KS-506h]
[2]; concentration of test compound 3.0 μg/ml, read-out: Release inhibition rate
  inhibition at 3 µg/mL: 13.9%
[2]; concentration of test compound 10.0 μg/ml, read-out: Release inhibition rate
  inhibition at 10 µg/mL: 59.9%
[2]
  IC50: 8.2 µg/mL (≈ 21.1 µM)
Solubility
  Solubility (solvents in which insoluble): insoluble in hexane and water
  Solubility (solvents in which soluble): soluble in methanol, acetone, ethyl acetate, acetonitrile and dimethylsulfoxide

## COc1ccc(Cc2nccc3cc(OC)c(OC)cc23)cc1OC [Papaverine hydrochloride, reference compound]
[1]
  IC50 (concentration of a test compound inhibiting 50% of the PDE activity): 60 µg/mL
